≈ marks a conversion by molar mass, not a printed value. Like-named read-outs stand apart in the source and are kept apart here.
Tests used:
Candida duobushaemulonii [1] = experiment: Planktonic growth, broth microdilution (CLSI M27-A3), MIC; type: cell-based; details: Candidozyma duobushaemuli
Summary of the method: (§1)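 Visual read-out: MIC taken as the lowest concentration showing no growth after 48 h incubation at 37°C in RPMI 1640. Compounds were serially diluted from DMSO solutions to 0.0625-32 mg/L, with matching DMSO controls, against three clinical isolates of each species.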

Candida haemulonii [2] = experiment: as above; type: cell-based; details: Candidozyma haemuli
Summary of the method: as §1

[3] = tested on: Candida haemulonii var. vulnera; experiment: as above; type: cell-based; details: Candidozyma haemuli
Summary of the method: as §1

[4] = Mammalian cell toxicity (MTT assay) and selectivity index; type: cell-based, Human; details: human, A549 cells (human lung adenocarcinoma); MTT, 48 h incubation
Summary of the method: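 A549 cells were exposed to compounds (0.0313–512 μg/mL) in DMEM for 48 h at 37 °C, 5% CO2. Viability was measured by MTT (3 h, dark), with formazan dissolved in DMSO and read at 450 nm. CC50 was derived, and SI calculated as A549 CC50 divided by C. haemulonii complex GM-MIC.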

[5] = tested on: Candida haemulonii complex; experiment: Biofilm-growing cells, overall across isolates; type: cell-based; details: geometric mean across strains, values marked * do not include LIP Ch4 (>512)
Summary of the method: (§2)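 Biofilms were grown from 10^6 yeast cells in Sabouraud-dextrose broth for 48 h at 37°C, washed three times with PBS pH 7.2, then exposed to compounds (same concentrations as planktonic assays) for another 48 h at 37°C. Metabolic activity was read by XTT reduction; bMIC is the lowest concentration giving 50% inhibition versus compound-free wells.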

C. haemulonii complex = experiment: Planktonic growth, overall across all nine isolates; type: cell-based, Candida haemulonii complex; details: for MIC: Candidozyma haemuli, geometric mean across all nine strains, read-out: Overall GM-MIC; for effect on planktonic fungal growth/viability (in words): nine clinical isolates, 0.0625-32 mg/L
Summary of the method: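 Three clinical isolates per species (nail, blood, urine origin), grown in Sabouraud-dextrose 48 h at 37°C, were tested by CLSI M27-A3 broth microdilution in RPMI 1640 over 0.0625-32 mg/L. After 48 h at 37°C, MIC was the lowest concentration with no visible growth; the across-isolate value is a geometric mean MIC.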

Candida duobushaemulonii [6] = experiment: Biofilm-growing cells, XTT assay, bMIC; type: cell-based; details: for GM-bMIC: geometric mean, C. duobushaemulonii isolates; for bMIC: mature biofilm, 48 h, 50% inhibition of metabolic activity
Summary of the method: as §2

Candida haemulonii [7] = experiment: Biofilm-growing cells, XTT assay, bMIC; type: cell-based; details: for GM-bMIC: geometric mean, C. haemulonii isolates, values marked * do not include LIP Ch4 (>512); for bMIC: mature biofilm, 48 h, 50% inhibition of metabolic activity
Summary of the method: as §2

[8] = tested on: Candida haemulonii var. vulnera; experiment: Biofilm-growing cells, XTT assay, bMIC; type: cell-based; details: for GM-bMIC: geometric mean, C. haemulonii var. vulnera isolates; for bMIC: mature biofilm, 48 h, 50% inhibition of metabolic activity
Summary of the method: as §2

[9] = 48 h, isolate LIP Ch1, planktonic, 48 h, 37°C, read-out: MIC
[10] = 48 h, isolate LIP Ch6, planktonic, 48 h, 37°C, read-out: MIC
[11] = 48 h, isolate LIP Ch8, planktonic, 48 h, 37°C, read-out: MIC
[12] = geometric mean of three C. duobushaemulonii isolates, read-out: GM-MIC
[13] = 48 h, isolate LIP Ch4, planktonic, 48 h, 37°C, read-out: MIC
[14] = 48 h, isolate LIP Ch7, planktonic, 48 h, 37°C, read-out: MIC
[15] = 48 h, isolate LIP Ch12, planktonic, 48 h, 37°C, read-out: MIC
[16] = geometric mean of three C. haemulonii isolates, read-out: GM-MIC
[17] = 48 h, isolate LIP Ch5, planktonic, 48 h, 37°C, read-out: MIC
[18] = 48 h, isolate LIP Ch9, planktonic, 48 h, 37°C, read-out: MIC
[19] = 48 h, isolate LIP Ch11, planktonic, 48 h, 37°C, read-out: MIC
[20] = geometric mean of three C. haemulonii var. vulnera isolates, read-out: GM-MIC

| Compound | MIC (Candida duobushaemulonii [1]; [9]) [µg/mL] | MIC (Candida duobushaemulonii [1]; [10]) [µg/mL] | MIC (Candida duobushaemulonii [1]; [11]) [µg/mL] | MIC (Candida duobushaemulonii [1]; [12]) [µg/mL] | MIC (Candida haemulonii [2]; [13]) [µg/mL] | MIC (Candida haemulonii [2]; [14]) [µg/mL] | MIC (Candida haemulonii [2]; [15]) [µg/mL] | MIC (Candida haemulonii [2]; [16]) [µg/mL] | MIC [3, 17] [µg/mL] | MIC [3, 18] [µg/mL] | MIC [3, 19] [µg/mL] | MIC [3, 20] [µg/mL] | CC50 at 48 h [4] [µg/mL] | Overall GM-bMIC ([5]; in μM) [µM] | Overall GM-bMIC [5] [mg/L] | MIC (C. haemulonii complex; in μM) [µM] | MIC (C. haemulonii complex) [µg/mL] | effect on planktonic fungal growth/viability (in words) (C. haemulonii complex) | GM-bMIC (Candida duobushaemulonii [6]) [mg/L] | bMIC (Candida duobushaemulonii [6]; isolate LIP Ch1) [mg/L] | further results |
| --- | --- | --- | --- | --- | --- | --- | --- | --- | --- | --- | --- | --- | --- | --- | --- | --- | --- | --- | --- | --- | --- |
| c1cnc2c(c1)ccc1cccnc12 [phen, 1,10-phenanthroline] | 1 (≈ 5.55 µM) | 1 (≈ 5.55 µM) | 1 (≈ 5.55 µM) | 1 (≈ 5.55 µM) | 1 (≈ 5.55 µM) | 1 (≈ 5.55 µM) | 1 (≈ 5.55 µM) | 1 (≈ 5.55 µM) | 1 (≈ 5.55 µM) | 1 (≈ 5.55 µM) | 0.5 (≈ 2.77 µM) | 0.79 (≈ 4.38 µM) | 4.3 (≈ 23.9 µM) | 27.96 | 5.04 | 5.16 | 0.93 | appreciably deterred fungal growth | 1 | 1 | activity of metal-free phen relative to phendione (C. haemulonii complex; planktonic, more active than phendione): ~ 2 fold; bMIC (Candida duobushaemulonii [6]; isolate LIP Ch6): 1 mg/L; bMIC (Candida duobushaemulonii [6]; isolate LIP Ch8): 1 mg/L; GM-bMIC (Candida haemulonii [7]): 12.70 mg/L; bMIC (Candida haemulonii [7]; isolate LIP Ch4): 512 mg/L; bMIC (Candida haemulonii [7]; isolate LIP Ch7): 2 mg/L; bMIC (Candida haemulonii [7]; isolate LIP Ch14): 2 mg/L; GM-bMIC [8]: 10.08 mg/L; bMIC ([8]; isolate LIP Ch5): 4 mg/L; bMIC ([8]; isolate LIP Ch9): 32 mg/L; bMIC ([8]; isolate LIP Ch13): 8 mg/L |
| O=C1C(=O)c2cccnc2-c2ncccc21 [phendione, 1,10-phenanthroline-5,6-dione, reference compound] | 2 (≈ 9.52 µM) | 4 (≈ 19 µM) | 2 (≈ 9.52 µM) | 2.52 (≈ 12 µM) | 2 (≈ 9.52 µM) | 2 (≈ 9.52 µM) | 2 (≈ 9.52 µM) | 2 (≈ 9.52 µM) | 2 (≈ 9.52 µM) | 2 (≈ 9.52 µM) | 2 (≈ 9.52 µM) | 2 (≈ 9.52 µM) | 2.02 (≈ 9.61 µM) | 76 | 14.67 | 10.3 | 2.16 | appreciably deterred fungal growth | 12.70 | 4 | bMIC (Candida duobushaemulonii [6]; isolate LIP Ch6): 32 mg/L; bMIC (Candida duobushaemulonii [6]; isolate LIP Ch8): 16 mg/L; GM-bMIC (Candida haemulonii [7]): 11.31^* mg/L; bMIC (Candida haemulonii [7]; isolate LIP Ch4): >512 mg/L; bMIC (Candida haemulonii [7]; isolate LIP Ch7): 8 mg/L; bMIC (Candida haemulonii [7]; isolate LIP Ch14): 16 mg/L; GM-bMIC [8]: 20.16 mg/L; bMIC ([8]; isolate LIP Ch5): 16 mg/L; bMIC ([8]; isolate LIP Ch9): 16 mg/L; bMIC ([8]; isolate LIP Ch13): 32 mg/L |
